Test results reported in patent publication US10112918B2, “15-oxospiramilactone derivatives, preparation method and uses thereof” (Kunming Institute of Botany, The Chinese Academy of Sciences, priority 2013, dated 2018).
Read-outs that look alike come from different tables or passages of the source.

Legend:
Format in all cases: cell-based
[1] = tested on: SW-480 (human colon cancer cells); assay: MTT inhibition of tumor cell growth, SW-480; conditions: Homo sapiens, SW480, 48 h
In short: (§1)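 Cells seeded at 5000-10000/well in DMEM or RPMI1640 with 10% FBS, exposed 48 h at 37 °C to compound (40 μM primary screen; 5-concentration re-screen for ~50% inhibitors), triplicates. MTT added 4 h, formazan dissolved in 10% SDS overnight, A595 read; IC50 by Reed-Muench two-point method.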

[2] = tested on: HL-60 (human promyelocytic leukemia cells); assay: MTT inhibition of tumor cell growth, HL-60; conditions: Homo sapiens, HL-60, 48 h
In short: as §1

[3] = tested on: Wnt signaling pathway (Top-Flash reporter gene); assay: Top-Flash Wnt reporter gene assay in HEK293T cells with Wnt3a conditioned medium
In short: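 HEK293T transfected with TOP-flash (5 ng/well) plus GFP plasmid for normalization, then treated 6 h with mouse Wnt3a conditioned medium from L cells, with or without compound. GFP-normalized luciferase minus DMSO-only background, scaled to Wnt-induced activity; IC50 at 0.5 relative residual activity from 4-parameter logistic fit.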

[4] = tested on: MCF-7 (human breast cancer cells); assay: MTT inhibition of tumor cell growth, MCF-7; conditions: Homo sapiens, MCF7, 48 h
In short: as §1

[5] = tested on: SMMC-7721 (human hepatoma cells); assay: MTT inhibition of tumor cell growth, SMMC-7721; conditions: Homo sapiens, SMMC-7721, 48 h
In short: as §1

[6] = Table 1, 7-hydroxy derivatives of S-3
[7] = Table 2, derivatives having potential Michael reaction acceptor
[8] = Table 3, single Michael reaction acceptor, modified lactonic ring
[9] = Table 4, derivatives obtained by reduction of the lactonic ring
[10] = Table 5, derivatives having double Michael reaction acceptor
[11] = Table 7 (first), alkaloid derivatives

- IC50 ([1]; Table 1, 7-hydroxy derivatives of S-3, read-out: IC50 SW-480): 3.58 µM
- IC50 ([1]; Table 2, derivatives having potential Michael reaction acceptor, read-out: IC50 SW-480): 3.58 µM
- IC50 ([1]; Table 3, single Michael reaction acceptor, modified lactonic ring, read-out: IC50 SW-480): 3.58 µM
- IC50 ([1]; Table 4, derivatives obtained by reduction of the lactonic ring, read-out: IC50 SW-480): 3.58 µM
- IC50 ([1]; Table 5, derivatives having double Michael reaction acceptor, read-out: IC50 SW-480): 3.58 µM
- IC50 ([1]; Table 6, 7-hydroxyl derivatives and controls, read-out: IC50 SW-480, 7-hydroxyl derivatives): 2.99 µM
- IC50 ([1]; Table 7 (first), alkaloid derivatives, read-out: IC50 SW-480): 3.58 µM
- IC50 [2, 6]: 6.36 µM
- IC50 [2, 7]: 6.36 µM
- IC50 [2, 8]: 6.36 µM
- IC50 [2, 9]: 6.36 µM
- IC50 [2, 10]: 6.36 µM
- IC50 [2, 11]: 6.36 µM
- IC50 ([3]; Homo sapiens, HEK-293T, 6 h, Table 7 (second), derivatives modified on 7-hydroxyl of S-3, HEK293T, Wnt3a conditioned medium, 6 h, read-out: IC50 (μM), inhibitory activity on the Wnt signaling pathway): 18.4 ± 1.82 µM
- IC50 ([3]; Homo sapiens, HEK-293T, 6 h, Table 8, HEK293T, Wnt3a conditioned medium, 6 h, read-out: IC50 (μM), inhibitory activity on the Wnt signaling pathway): 18.7 ± 0.58 µM
- IC50 ([3]; Homo sapiens, HEK-293T, 6 h, Table 9, HEK293T, Wnt3a conditioned medium, 6 h, read-out: IC50(μM), inhibitory activity on the Wnt signaling pathway): 18 ± 0.28 µM
- IC50 ([3]; Homo sapiens, HEK-293T, 6 h, Table 10, HEK293T, Wnt3a conditioned medium, 6 h, read-out: IC50 (μM), inhibitory activity on the Wnt signaling pathway): 13.9 ± 2.01 µM
- IC50 ([3]; Homo sapiens, HEK-293T, 6 h, Table 11, HEK293T, Wnt3a conditioned medium, 6 h, read-out: IC50 (μM), inhibitory activity on the Wnt signaling pathway): 22.5 ± 0.56 µM
- IC50 ([3]; Homo sapiens, HEK-293T, footnotes of Tables 8 and 9: S-3 control in the run of the compounds marked a or b, read-out: corresponding IC50 value of S-3 (Wnt signaling pathway)): 18.4 µM
- IC50 ([3]; footnotes of Tables 8 and 9: S-3 control in the run of the compounds marked a or b, listed as S-3, read-out: corresponding IC50 value of S-3 (Wnt signaling pathway)): 15.3 µM
- IC50 [4, 6]: 3.25 µM
- IC50 [4, 7]: 3.25 µM
- IC50 [4, 8]: 3.25 µM
- IC50 [4, 9]: 3.25 µM
- IC50 [4, 10]: 3.25 µM
- IC50 [4, 11]: 3.25 µM
- IC50 [5, 6]: 3.96 µM
- IC50 [5, 7]: 3.96 µM
- IC50 [5, 8]: 3.96 µM
- IC50 [5, 9]: 3.96 µM
- IC50 [5, 10]: 3.96 µM
- IC50 [5, 11]: 3.96 µM
SMILES: C=C1C(=O)[C@]23CC[C@H]1CC2[C@@]12CCC[C@@](C)(COC1=O)C2C[C@H]3O (some centres unmarked) [Compound 1, 15-oxospiramilactone]
